Laboratory results published in US7855177B1, “Methods and kits for preventing hypoglycemia” (Cebix Inc., priority 2009, dated 2010).

Tested on: type 1 diabetes patients with peripheral neuropathy
Assay: Phase II trial: adverse events
Conditions: for Total treatment emergent AEs of any severity, number / Total treatment emergent AEs possibly related to study drug, number: all SOCs; for Total Adverse Events, Moderate / Total Adverse Events, Severe: ITT data set, number of treatment emergent AEs
[1] = High-dose C-peptide, SOC Blood and lymphatic system disorder
[2] = High-dose C-peptide, SOC Eye disorder
[3] = High-dose C-peptide, SOC Gastro-intestinal Disorders
[4] = High-dose C-peptide, SOC General disorders and administration site conditions
[5] = High-dose C-peptide, SOC Infections and infestations
[6] = High-dose C-peptide, SOC Injury poisoning, procedural complications
[7] = High-dose C-peptide, SOC Investigations
[8] = High-dose C-peptide, SOC Metabolism and nutritional disorders
[9] = High-dose C-peptide, SOC Musculoskeletal and connective tissue disorder
[10] = High-dose C-peptide, SOC Nervous system disorders
[11] = High-dose C-peptide, SOC Reproductive system and breast disorders
[12] = High-dose C-peptide, SOC Respiratory, thoracic, and mediastinal disorders
[13] = High-dose C-peptide, SOC Skin and subcutaneous tissue disorders
[14] = High-dose C-peptide, SOC Surgical and Medical
[15] = High-dose C-peptide, SOC Vascular disorders
[16] = Low-dose C-peptide, SOC Cardiac disorder
[17] = Low-dose C-peptide, SOC Eye disorder
[18] = Low-dose C-peptide, SOC Gastro-intestinal Disorders
[19] = Low-dose C-peptide, SOC Immune system disorders
[20] = Low-dose C-peptide, SOC Infections and infestations
[21] = Low-dose C-peptide, SOC Injury poisoning, procedural complications
[22] = Low-dose C-peptide, SOC Investigations
[23] = Low-dose C-peptide, SOC Metabolism and nutritional disorders
[24] = Low-dose C-peptide, SOC Musculoskeletal and connective tissue disorder
[25] = Low-dose C-peptide, SOC Nervous system disorders
[26] = Low-dose C-peptide, SOC Psychiatric disorders
[27] = Low-dose C-peptide, SOC Skin and subcutaneous tissue disorders
[28] = Low-dose C-peptide, SOC Surgical and Medical

Procedure: The safety measurements comprised collection of AEs, spontaneously reported by the patient or recorded by the investigator at each clinical visit. Review of laboratory investigations, vital signs, and physical examinations was performed at the S/B visit, visit 2, and at end of study (visit 4). ECG was performed at the S/B visit and at visit 4.
An AE was classified as “unexpected event” (i.e., if not specifically listed in the Investigator's Brochure) in terms of nature, severity, or frequency. All AEs, including intercurrent illnesses and increased severity or frequency of sign/symptoms of a concomitant disease was reported and documented as described below. AEs were documented on an “Adverse Event/Serious Adverse Event” page of the CRF and in the patient's medical records. Any AE occurring at any time after the end of the study, considered to be caused by the study medication—and therefore a possible adverse drug reaction—was reported to the sponsor.
The period of observation for AEs extended from the time the patient started on trial medication until end of the study. AEs were divided into the categories “serious” and “non-serious”. This determined the procedure used to report/document the AE.
Regardless of the classification of an AE as serious or non-serious (see above), its severity was assessed as mild, moderate, or severe, according to medical criteria alone:
Descriptive statistics were used for safety variables. For lab parameters summary statistics were presented as change from baseline and between doses. The changes from baseline were calculated and compared with normal ranges. The safety analysis set included all patients who obtained at least one dose of the investigational drug. AEs were coded according to the MedDRA dictionary. The frequencies of AEs are tabulated by body system and included/preferred term.

CC(C)C[C@H](NC(=O)[C@H](C)NC(=O)[C@H](CC(C)C)NC(=O)[C@@H]1CCCN1C(=O)[C@H](CCC(N)=O)NC(=O)[C@H](CC(C)C)NC(=O)[C@H](CO)NC(=O)CNC(=O)[C@H](C)NC(=O)CNC(=O)[C@@H]1CCCN1C(=O)CNC(=O)CNC(=O)CNC(=O)[C@H](CC(C)C)NC(=O)[C@H](CCC(=O)O)NC(=O)[C@@H](NC(=O)[C@H](CCC(N)=O)NC(=O)CNC(=O)[C@@H](NC(=O)[C@H](CCC(N)=O)NC(=O)[C@H](CC(C)C)NC(=O)[C@H](CC(=O)O)NC(=O)[C@H](CCC(=O)O)NC(=O)[C@H](C)NC(=O)[C@@H](N)CCC(=O)O)C(C)C)C(C)C)C(=O)N[C@@H](CCC(=O)O)C(=O)NCC(=O)N[C@@H](CO)C(=O)N[C@@H](CC(C)C)C(=O)N[C@@H](CCC(N)=O)C(=O)O [C-peptide]
tolerability (500-1,500 nmoL/24 h): well tolerated | Anemia, number of AEs [1]: 1 | Hemorrhage, number of AEs [1]: 1 | Macular edema, number of AEs [2]: 1 | Vitreous hemorrhage, number of AEs [2]: 1 | Abdominal pain, number of AEs [3]: 3 | Aptyalism, number of AEs [3]: 1 | Diarrhea, number of AEs [3]: 1 | Gastritis, number of AEs [3]: 1 | Nausea, number of AEs [3]: 4 | Tooth ache, number of AEs [3]: 3 | Chest pain, number of AEs [4]: 2 | Fatigue, number of AEs [4]: 2 | Feeling abnormal, number of AEs [4]: 3 | Injection site burning, number of AEs [4]: 1 (1) | Injection site burning, number of AEs possibly related to study drug [4]: 1 (1) | Gastroenteritis, number of AEs [5]: 7 | Otitis, number of AEs [5]: 2 | Pharyngitis, number of AEs [5]: 2 | Sepsis, number of AEs [5]: 1 | Sinusitis, number of AEs [5]: 2 | Skin infection, number of AEs [5]: 1 | Tonsilitis, number of AEs [5]: 2 | Tooth infection, number of AEs [5]: 2 | Upper respiratory tract infection, number of AEs [5]: 1 | Urinary tract infection, number of AEs [5]: 1 | Blister, number of AEs [6]: 2 | Dizziness, number of AEs [6]: 1 | Eye injury, number of AEs [6]: 1 | Food poisoning, number of AEs [6]: 1 | Joint sprain ankle, number of AEs [6]: 1 | Knee injury, number of AEs [6]: 1 | Rib fracture/injury, number of AEs [6]: 2 | Scar, number of AEs [6]: 1 | Tooth injury, number of AEs [6]: 1 | Cardiac murmur, number of AEs [7]: 1 | Hematuria, number of AEs [7]: 1 | Hepatic enzyme increase, number of AEs [7]: 2 | Hypercalcemia, number of AEs [7]: 1 | Leucopenia, number of AEs [7]: 1 | Lymph node enlargement, number of AEs [7]: 1 | Hyperglycemia, number of AEs [8]: 1 | Hypoglycemia, number of AEs [8]: 5 | Hypoglycemia, number of AEs possibly related to study drug [8]: 1 | Hypoglycemic coma, number of AEs [8]: 2 | Vitamin B12 deficiency, number of AEs [8]: 1 | Arthralgia, number of AEs [9]: 3 | Arthritis, number of AEs [9]: 1 | Arthropathy, number of AEs [9]: 1 | Back pain, number of AEs [9]: 2 | Epicondylitis, number of AEs [9]: 1 | Muscle spasm, number of AEs [9]: 1 | Muscular atrophy, number of AEs [9]: 1 | Myalgia, number of AEs [9]: 1 | Pain in extremity, number of AEs [9]: 4 | Pain in shoulder, number of AEs [9]: 1 | Tendinitis, number of AEs [9]: 1 | Tendosynovitis, number of AEs [9]: 1 | Torticollis, number of AEs [9]: 1 | Burning sensation, number of AEs [10]: 1 | Headache, number of AEs [10]: 17 | Hyperaesthesia, number of AEs [10]: 1 (1) | Hyperaesthesia, number of AEs possibly related to study drug [10]: 1 (1) | Migraine, number of AEs [10]: 1 | Paraesthesia, number of AEs [10]: 2 (2) | Paraesthesia, number of AEs possibly related to study drug [10]: 2 (2) | Restless legs syndrome, number of AEs [10]: 1 | Sciatica, number of AEs [10]: 1 | Sensory loss, number of AEs [10]: 1 | Vertigo, number of AEs [10]: 1 | Pregnancy, number of AEs (High-dose C-peptide, SOC Pregnancy, puerperium and perinatal conditions): 2 | Menopausal disorder, number of AEs [11]: 1 | Menstration irregular, number of AEs [11]: 1 | Cough, number of AEs [12]: 1 | Epistaxis, number of AEs [12]: 1 | Skin induration, number of AEs [13]: 1 | Skin infection, number of AEs [13]: 2 | Sweating increased, number of AEs [13]: 1 | Limb operation, number of AEs [14]: 1 | Tooth extraction, number of AEs [14]: 1 | Arterial disorder, number of AEs [15]: 1 | Hypertension, number of AEs [15]: 1 | Hypotension, number of AEs [15]: 1 | Total treatment emergent AEs of any severity, number (High-dose C-peptide): 156 | Total treatment emergent AEs possibly related to study drug, number (High-dose C-peptide): 5 | Anemia, number of AEs (Low-dose C-peptide, SOC Blood and lymphatic system disorder): 1 | Cardiac arrhythmia, number of AEs [16]: 1 | ST elevation (ECG), number of AEs [16]: 1 | Tachycardia (stress, number of AEs) [16]: 1 | Dacryocanaliculitis, number of AEs [17]: 1 | Vision decreased, number of AEs [17]: 1 | Celiac disease, number of AEs [18]: 1 | Diarrhea, number of AEs [18]: 2 | Flatulence, number of AEs [18]: 1 | Nausea, number of AEs [18]: 1 | Reflux gastritis, number of AEs [18]: 2 | Tooth ache, number of AEs [18]: 2 | Pyrexia, number of AEs (Low-dose C-peptide, SOC General disorders and administration site conditions): 3 | Allergic urticaria, number of AEs [19]: 1 | Dermatitis allergic, number of AEs [19]: 1 | Rheumarthritis, number of AEs [19]: 1 | Season allergy, number of AEs [19]: 1 | Borrelia infection, number of AEs [20]: 1 | Bronchitis, number of AEs [20]: 1 | Candidiasis, number of AEs [20]: 2 | Gastroenteritis, number of AEs [20]: 2 | Herpes simplex, number of AEs [20]: 1 | Herpeszoster, number of AEs [20]: 1 | Influenza, number of AEs [20]: 1 | Nasopharyngitis, number of AEs [20]: 31 | Otitis, number of AEs [20]: 1 | Pharyngitis, number of AEs [20]: 1 | Sinusitis, number of AEs [20]: 4 | Skin infection, number of AEs [20]: 5 | Tonsilitis, number of AEs [20]: 1 | Upper respiratory tract infection, number of AEs [20]: 3 | Urinary tract infection, number of AEs [20]: 3 | Joint sprain ankle, number of AEs [21]: 1 | Rib fracture/injury, number of AEs [21]: 1 | Skin injury, number of AEs [21]: 2 | Elevated serum, number of AEs [22]: 1 | Hepatic enzyme increase, number of AEs [22]: 2 | Hepatic enzyme increase, number of AEs possibly related to study drug [22]: 1 | Hyperkalaemia, number of AEs [22]: 1 | Weight increased, number of AEs [22]: 1 | Hyperglycemia, number of AEs [23]: 1 (1) | Hyperglycemia, number of AEs possibly related to study drug [23]: 1 (1) | Hyperlipidemia, number of AEs [23]: 1 | Hypoglycemia, number of AEs [23]: 2 | Hypoglycemia, number of AEs possibly related to study drug [23]: 1 | Hypoglycemic coma, number of AEs [23]: 2 | Insulin sensitivity, number of AEs [23]: 1 (1) | Insulin sensitivity, number of AEs possibly related to study drug [23]: 1 (1) | Arthralgia, number of AEs [24]: 3 | Arthritis, number of AEs [24]: 1 | Arthropathy, number of AEs [24]: 2 | Epicondylitis, number of AEs [24]: 1 | Exostosis, number of AEs [24]: 2 | Muscle cramp, number of AEs [24]: 1 | Musculoskeletal chest, number of AEs [24]: 1 | Myalgia, number of AEs [24]: 3 | Pain in extremity, number of AEs [24]: 3 | Pain in extremity, number of AEs possibly related to study drug [24]: 1 | Pain in neck, number of AEs [24]: 1 | Synovial disorder, number of AEs [24]: 1 | Tendinous contracture, number of AEs [24]: 1 | Carpal tunnel syndrome, number of AEs [25]: 1 | Dizziness, number of AEs [25]: 2 | Headache, number of AEs [25]: 35 | Hyperthermeasthesia, number of AEs [25]: 2 (2) | Hyperthermeasthesia, number of AEs possibly related to study drug [25]: 2 (2) | Hypoaesthesia, number of AEs [25]: 2 | Multiple sclerosis, number of AEs [25]: 1 | Paraesthesia, number of AEs [25]: 2 | Paraesthesia, number of AEs possibly related to study drug [25]: 1 | Depression, number of AEs [26]: 1 | Panic disorder, number of AEs [26]: 1 | Stress disorder, number of AEs [26]: 1 | Asthma, number of AEs (Low-dose C-peptide, SOC Respiratory, thoracic, and mediastinal disorders): 1 | Dry skin, number of AEs [27]: 1 | Fibroma, number of AEs [27]: 1 | Skin induration, number of AEs [27]: 2 | Eye operation, number of AEs [28]: 1 | Limb operation, number of AEs [28]: 1 | Hypertension, number of AEs (Low-dose C-peptide, SOC Vascular disorders): 1 | Total treatment emergent AEs of any severity, number (Low-dose C-peptide): 173 | Total treatment emergent AEs possibly related to study drug, number (Low-dose C-peptide): 8 | local reactions (S.C. injection, 500-1,500 nmoL/24 h): No local reactions | SAEs (high-dose C-peptide (1,500 nmoL/24 h)): Two | AEs possibly/probably related to the study drug (high-dose C-peptide group): 5 | patients without reported AEs (high-dose C-peptide group): 6 patients | patients with AEs (high-dose C-peptide group, 44 out of 52 patients): 85% | Total Adverse Events, Moderate (high-dose C-peptide group): Moderate = 43 | Total Adverse Events, Severe (high-dose C-peptide group): Severe = 9 | relationship of SAEs to the trial medication (high-dose C-peptide, investigators' assessment): unlikely/not related | patients without reported AEs (low-dose C-peptide group): 8 patients | patients with AEs (low-dose C-peptide group, 48 out of 56 patients): 86% | Total Adverse Events, Moderate (low-dose C-peptide group): Moderate = 51 | Total Adverse Events, Severe (low-dose C-peptide group): Severe = 1
